Laboratory results: ChEMBL document CHEMBL1201862, “PubChem BioAssay data set” (2004)
The source made the active and inactive calls.

Tests used:
[1] = target: Heat shock protein HSP 90-alpha (Homo sapiens, UniProt P07900); assay type: functional, organism-based
INS1 = test: beta cell apoptosis inhibitors, cytokine rescue, dose response, luminescence, retest (AID 449756); assay type: functional, cell-based; conditions: Rattus norvegicus;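 note: cell death triggered by IL-1 beta plus TNF-alpha plus IFN-gamma mixture; protective hits raise ATP signal compared with cytokine alone wells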
[2] = C. albicans growth with fluconazole, confirmation, fluorescence, retest (AID 2467); assay type: functional, cell-based
[3] = NIH-3T3 fibroblast cytotoxicity, dose response, cytotoxicity control, cell-based, fluorescence, Alamar Blue, secondary assay (AID 2327); assay type: functional;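 note: NIH-3T3 mouse fibroblasts cultured with fluconazole at 8 µg/mL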
[4] = target: T1, Apoptotic protease-activating factor 1 (Homo sapiens, UniProt O14727); assay type: functional
T1 sequence (O14727 whole entry): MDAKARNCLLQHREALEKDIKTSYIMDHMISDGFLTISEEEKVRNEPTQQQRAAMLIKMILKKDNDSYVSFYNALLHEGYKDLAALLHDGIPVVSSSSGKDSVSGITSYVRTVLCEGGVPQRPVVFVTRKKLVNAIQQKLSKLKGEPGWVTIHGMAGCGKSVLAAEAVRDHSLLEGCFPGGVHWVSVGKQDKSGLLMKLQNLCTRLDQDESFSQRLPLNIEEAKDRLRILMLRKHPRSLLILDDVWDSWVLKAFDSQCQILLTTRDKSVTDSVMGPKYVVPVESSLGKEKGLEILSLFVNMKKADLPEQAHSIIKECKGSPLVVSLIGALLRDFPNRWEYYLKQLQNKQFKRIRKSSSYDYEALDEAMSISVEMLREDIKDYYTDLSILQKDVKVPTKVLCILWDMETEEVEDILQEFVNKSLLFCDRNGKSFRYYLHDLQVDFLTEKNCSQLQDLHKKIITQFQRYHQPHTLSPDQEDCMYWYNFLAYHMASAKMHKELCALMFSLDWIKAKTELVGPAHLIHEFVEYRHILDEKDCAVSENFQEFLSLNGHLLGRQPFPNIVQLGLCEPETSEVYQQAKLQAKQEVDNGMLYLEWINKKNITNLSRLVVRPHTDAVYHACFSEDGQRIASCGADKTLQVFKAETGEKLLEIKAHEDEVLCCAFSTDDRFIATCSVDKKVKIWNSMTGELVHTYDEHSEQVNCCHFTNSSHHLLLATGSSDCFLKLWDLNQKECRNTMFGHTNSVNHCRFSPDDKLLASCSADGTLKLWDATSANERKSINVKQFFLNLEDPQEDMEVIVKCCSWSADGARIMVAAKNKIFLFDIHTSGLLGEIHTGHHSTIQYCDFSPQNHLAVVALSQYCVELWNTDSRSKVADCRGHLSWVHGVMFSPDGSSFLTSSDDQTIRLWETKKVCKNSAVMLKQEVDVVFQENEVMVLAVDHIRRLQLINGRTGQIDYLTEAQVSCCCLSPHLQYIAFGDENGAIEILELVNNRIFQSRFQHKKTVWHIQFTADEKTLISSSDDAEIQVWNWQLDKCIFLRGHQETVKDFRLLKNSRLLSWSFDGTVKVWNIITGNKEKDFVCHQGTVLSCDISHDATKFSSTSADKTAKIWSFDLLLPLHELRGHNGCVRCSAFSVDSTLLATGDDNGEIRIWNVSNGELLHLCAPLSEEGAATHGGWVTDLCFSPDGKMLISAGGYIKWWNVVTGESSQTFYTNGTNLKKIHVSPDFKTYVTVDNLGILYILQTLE

[5] = target: T2, Replicative DNA helicase DnaB (Mycobacterium tuberculosis, UniProt P9WMR3); test: DnaB intein splicing inhibitors, dose response, biochemical, cell-free fluorescence (AID 449749); assay type: functional
T2 sequence (P9WMR3 whole entry): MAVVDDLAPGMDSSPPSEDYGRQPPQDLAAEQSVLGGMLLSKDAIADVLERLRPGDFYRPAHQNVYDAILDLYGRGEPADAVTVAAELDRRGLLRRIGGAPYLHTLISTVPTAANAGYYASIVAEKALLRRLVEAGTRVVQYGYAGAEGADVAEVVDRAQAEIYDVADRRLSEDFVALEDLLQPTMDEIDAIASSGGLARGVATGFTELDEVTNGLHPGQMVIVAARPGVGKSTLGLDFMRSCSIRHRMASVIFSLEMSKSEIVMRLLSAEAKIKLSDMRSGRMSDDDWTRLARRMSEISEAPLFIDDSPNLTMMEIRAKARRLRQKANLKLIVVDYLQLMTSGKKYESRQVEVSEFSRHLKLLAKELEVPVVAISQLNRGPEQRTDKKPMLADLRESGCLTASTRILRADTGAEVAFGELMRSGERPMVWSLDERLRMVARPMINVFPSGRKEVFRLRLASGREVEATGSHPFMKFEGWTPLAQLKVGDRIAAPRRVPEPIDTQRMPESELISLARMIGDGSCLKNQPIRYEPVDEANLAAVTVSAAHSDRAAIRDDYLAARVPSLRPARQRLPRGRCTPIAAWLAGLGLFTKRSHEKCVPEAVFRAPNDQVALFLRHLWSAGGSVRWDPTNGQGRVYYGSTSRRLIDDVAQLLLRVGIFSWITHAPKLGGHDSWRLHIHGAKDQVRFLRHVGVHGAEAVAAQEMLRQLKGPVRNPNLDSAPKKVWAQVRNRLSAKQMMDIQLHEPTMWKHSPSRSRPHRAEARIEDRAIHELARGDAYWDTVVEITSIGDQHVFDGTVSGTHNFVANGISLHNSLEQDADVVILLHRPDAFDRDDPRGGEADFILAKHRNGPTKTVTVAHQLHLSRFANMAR

Question: Which AC50 [1] does the source give for `CC(C)CC(=O)NC(c1cccs1)c1ccc2cccnc2c1O` (stereo not given) here?
Answer: Its AC50 is 3.78 µM (active).

Question: And the AC50 (INS1)?
Answer: Its AC50 is 0.862 µM (active).

Question: And the EC50 [2]?
Answer: The EC50 was 0.58 µM (active).

Question: And the EC50 [3]?
Answer: Its EC50 is 24.3 µM (active).

Question: For `CCOC(=O)c1ccc(NC2=CC(=O)C(=O)c3ccccc32)cc1`, which IC50 [4] is on record?
Answer: The IC50 was 4.73 µM (active).

Question: And the AC50 [5]?
Answer: Its AC50 is > 380 µM (inactive).

Question: For `OC(CNCCC1C=Nc2ccccc21)Cn1c2ccc(Cl)cc2c2cc(Cl)ccc21` (stereo not given), which AC50 [1] is on record?
Answer: The AC50 was 8.15 µM (active).

Question: What about the AC50 (INS1) of the same compound?
Answer: The AC50 was 7.32 µM (active).

Question: And the EC50 [2]?
Answer: Its EC50 is > 38 µM (not active).

Question: And the EC50 [3]?
Answer: Its EC50 is 14.3 µM (inconclusive).

Question: And the AC50 [5]?
Answer: Its AC50 is 6.51 µM (active).

Question: Which results are given for `CCCCCCCCCCCCCCCC[N+](C)(C)C`?
Answer: AC50 [1]: 8.33 µM (active); AC50 (INS1): 4.84 µM (active); IC50 [4]: 27.5 µM (active); EC50 [2]: > 38 µM (not active); EC50 [3]: > 150 µM (inconclusive); AC50 [5]: 4.78 µM (active)

Question: With `COc1ccc(C(=O)c2nccc3cc(OC)c(OC)cc23)cc1OC` as the compound, how does the IC50 [4] read?
Answer: Its IC50 is 24.4 µM (active).

Question: What does the source list for `Cc1ccccc1-c1cc2c(nn1)-c1ccccc1C2=O`?
Answer: IC50 [4]: 25.5 µM (active); AC50 [5]: 6.85 µM (active)
